Entries after “also recorded” stand apart in the source; their conditions may differ.
Tests used:
[1] = system: LDLR; assay: SDS-PAGE/Western blot of LDLR expression in E3 astrocyte cells; type: cell-based, mouse; details: 10 μM, 24 hrs, Western blot, FIGS. 6 and 7
Protocol: Experiments were set up to test whether the claimed compounds increase LDLR expression in cortical astrocyte cells. The experiments involved treating mouse cortical astrocyte cells (E3 astrocyte cells) with the claimed compounds at 10 μM concentration for an incubation time of 24 hrs. DMSO solvent was used as a negative control, because the compounds were dissolved in DMSO when applied to the cells.
(§1) Western blot protocol and analysis was used to determine the LDLR levels in the E3 astrocyte cells. The western blot, otherwise known as a protein immunoblot, is a widely used analytical technique used to detect specific proteins in a cell culture or tissue sample. It uses gel electrophoresis to separate proteins by 3-D structure or denatured proteins by the length of the polypeptide. The proteins are then transferred to a membrane (typically nitrocellulose or PVDF), where they are stained with antibodies specific to the target protein. […] FIGS. 6 and 7 show gel images showing the effects the claimed compounds have on the target proteins. The protein bands show the presence and amount of each target protein present in the media from treated cells (compound numbers shown in the column headers).
(§2) In this case, after the 24-hour culture period, the treated cell media from cells treated with each respective compound were run by electrophoresis on polyacrylamide gel containing sodium dodecyl sulfate (SDS). The proteins from the SDS-PAGE process were then transferred to a nitrocellulose […] and stained.
(§3) FIGS. 6 and 7 show the presence of the following proteins in mouse E3 astrocyte cells: AbcA1, LDLR, ApoE3, and GAPDH. The GAPDH protein serves as the loading control protein for the western blot analysis. For each of the claimed compounds, FIGS. 6 and 7 show three samples run to determine the presence and amount of each indicated protein. The three samples for each treatment compound are indicated by the line under the compound number—the line stretches across three columns of protein bands.
(§4) The E3 astrocyte cells (1.6×10^4 cells/96-well plate) were grown for 1 day in RPMI, followed by a 24 hour equilibration in serum-free Opti-MEM (Life Technologies). Treatments were carried out in triplicate with […] of fresh Opti-MEM containing 10 μM of compound or vehicle (0.1% DMSO) for 24 hours. After the incubation time, the cellular media was collected as samples.
(§5) The collected samples were prepared for SDS-PAGE and western blot analysis by centrifuging and then extracting the protein by TCA-precipitation. The extracted protein was then resuspended in a Tris buffer.
(§6) After incubation and collection, the samples were run on a SDS-polyacrylamide gel (10% SDS). The SDS-polyacrylamide gel comprises the following:
(§7) Each sample was prepared to run on the SDS-polyacrylamide gel. About 20 μL of each sample was prepared to be run in the gel. The samples were prepared comprising the following:
(§8) The SDS-PAGE process was run with SDS-PAGE running buffer (Tris base, glycine, and 10% SDS) at 150 V until the dye front reached the bottom of the gel.
(§9) For the western blot portion of the analysis, the separated protein bands in the gel are then transferred to a nitrocellulose membrane by methods well known in the art. Following the western blot transfer, the blot is rinsed several times with dH2O to remove the salts. After blocking unreacted sites on the nitrocellulose membrane, all protein bands are stained with 0.5% Ponceau S (0.5 g Ponceau S, 1 ml Glacial HAc, 99 ml dH2O) and the target protein antibody.
(§10) The antibodies used for staining AbcA1 were obtained from Novus (NB100-2068). The antibodies used for staining LDLR were obtained from MBL International (JM-3839). The antibodies used for staining intracellular apoE were obtained from Meridian Life Science (K74180B). The antibodies used for staining GAPDH were obtained from Santa Cruz (sc-25778).

[2] = system: apoE3; assay: ELISA of apoE3 levels in conditioned media of compound-treated mouse cortical astrocyte cells; type: cell-based; details: for ApoE3 Levels in Cell Media, Average of Three Tests / ApoE3 Levels in Cell Media, Test 1 / ApoE3 Levels in Cell Media, Test 2 / ApoE3 Levels in Cell Media, Test 3: 10 μM compound, 24 hours, normalized to cell protein, relative to DMSO treated cells
Protocol: ApoE inhibition can be readily determined by any one of several assays and techniques known to those of ordinary skill in the art, including the enzyme-linked immunosorbant assay (ELISA). In the experimental results shown in Table 2 and FIG. 5, the ELISA assay was carried out on cortical astrocyte cells from mice. Astrocyte cells produce apoE, LDLR and AbcA1 proteins.
The experiments involved treating mouse cortical astrocyte cells with the claimed compounds at 10 μM concentration for an incubation time of 24 hrs. DMSO solvent was used as a negative control, because the compounds were dissolved in DMSO when applied to the cells.
The ELISA technique involves immobilizing an apoE-specific capture antibody to a 96-well plate, addition of sample (conditioned medium from mouse cortical astrocyte cells treated with the compound for 24 hours), and detection of the bound apoE using a second apoE-specific biotinylated antibody and streptavidin-HRP.
The Mabtech ELISA kit detects the presence of the three apoE isoforms: apoE2, apoE3, and apoE4.
To obtain the data shown in Table 2 and FIG. 5, the mouse cortical astrocyte cells were maintained in DMEM medium (Invitrogen) supplemented with 10 mM HEPES, 1 mM sodium pyruvate, 4.5 g/L glucose, 1% penicillin/streptomycin, and 10% fetal bovine growth serum (Invitrogen) at 37° C., with 5% CO2.
The cells (6×10^4 cells/24-well plate) were grown for 1 day in RPMI, followed by a 24 hour equilibration in serum-free Opti-MEM (Life Technologies). Treatments were carried out in triplicate with […] of fresh Opti-MEM containing 10 μM of compound or vehicle (0.1% DMSO) for 24 hours. […] ApoE concentration in the sample was calculated based on a standard curve derived using known amounts of purified apoE (from Biodesign).
The protein levels in the cells in the 24-well plates were measured using BCA Protein Assay Kit (from Pierce) and used to normalize the data. […] Sample apoE3 concentrations were represented relative to the DMSO treated cells.
The bars in FIG. 5 reflect the respective mean level apoE3 in the media for each compound with an indication of one […].

[3] = system: AbcA1; assay: SDS-PAGE/Western blot of AbcA1 expression in E3 astrocyte cells; type: cell-based, mouse; details: 10 μM, 24 hrs, Western blot, FIGS. 6 and 7
Description: as §1, §2, §3
AbcA1 protein plays a key role in regulating cholesterol in biological systems and therefore affects amyloid beta plaque formation. The goal of the biological screen (results shown in FIGS. 6 and 7) was to find compounds that prevent amyloid beta (Aβ) plaque formation, one of the deleterious causes of Alzheimer's Disease.
as §4, §5, §6, §7, §8, §9, §10

O=S(=O)(NC1CCCCC1)c1ccc(-c2ccccc2)cc1 [Compound 136]
LDLR expression (amount of LDLR protein) compared to the DMSO control [1]: increase | ApoE3 Levels in Cell Media, Average of Three Tests [2]: 89.73 % of the DMSO control | ApoE3 Levels in Cell Media, Test 1 [2]: 89.58 % of the DMSO control | ApoE3 Levels in Cell Media, Test 2 [2]: 91.2 % of the DMSO control | ApoE3 Levels in Cell Media, Test 3 [2]: 88.41 % of the DMSO control

CC(NS(=O)(=O)c1ccc(-c2ccccc2)cc1)c1ccccc1 (stereo not drawn) [Compound 137]
LDLR expression (amount of LDLR protein) compared to the DMSO control [1]: increase | ApoE3 Levels in Cell Media, Average of Three Tests [2]: 88.63 % of the DMSO control | ApoE3 Levels in Cell Media, Test 1 [2]: 79.41 % of the DMSO control | ApoE3 Levels in Cell Media, Test 2 [2]: 86.65 % of the DMSO control | ApoE3 Levels in Cell Media, Test 3 [2]: 99.83 % of the DMSO control

CCC(C)NC(=O)c1ccc2ccccc2c1 (stereo not drawn) [Compound 88, naphthalene-2-carboxylic acid sec-butylamide]
LDLR expression (amount of LDLR protein) compared to the DMSO control [1]: increase | ApoE3 Levels in Cell Media, Average of Three Tests [2]: 100.678 % of the DMSO control | ApoE3 Levels in Cell Media, Test 1 [2]: 104.1856 % of the DMSO control | ApoE3 Levels in Cell Media, Test 2 [2]: 95.94 % of the DMSO control | ApoE3 Levels in Cell Media, Test 3 [2]: 101.9038 % of the DMSO control

O=S(=O)(c1ccc2ccccc2c1)N1CCCC1 [Compound 96]
LDLR expression (amount of LDLR protein) compared to the DMSO control [1]: increase | ApoE3 Levels in Cell Media, Average of Three Tests [2]: 118.6531 % of the DMSO control | ApoE3 Levels in Cell Media, Test 1 [2]: 104.9618 % of the DMSO control | ApoE3 Levels in Cell Media, Test 2 [2]: 132.594 % of the DMSO control | ApoE3 Levels in Cell Media, Test 3 [2]: 118.4035 % of the DMSO control

c1ccc(C(c2ccccc2)(c2ccc3ccccc3c2)N2CCOCC2)cc1 [Triarylmethyl Amine Compound No. 38, reference compound]
AbcA1 expression compared to the DMSO control [3]: significantly decrease or inhibit; also recorded: decrease | ApoE3 Levels in Cell Media, Average of Three Tests [2]: 79.07 % of the DMSO control | ApoE3 Levels in Cell Media, Test 1 [2]: 76.4862 % of the DMSO control | ApoE3 Levels in Cell Media, Test 2 [2]: 92.35 % of the DMSO control | ApoE3 Levels in Cell Media, Test 3 [2]: 68.38 % of the DMSO control | apoE (apoE3) expression compared to the control DMSO, in words ([2]; 10 μM, 24 hrs, ELISA of media): effectively decrease

CCN(CC)S(=O)(=O)c1ccc2ccccc2c1 [Compound 129]
AbcA1 expression compared to the DMSO control [3]: decrease | ApoE3 Levels in Cell Media, Average of Three Tests [2]: 81.14 % of the DMSO control | ApoE3 Levels in Cell Media, Test 1 [2]: 80.4063 % of the DMSO control | ApoE3 Levels in Cell Media, Test 2 [2]: 82.82 % of the DMSO control | ApoE3 Levels in Cell Media, Test 3 [2]: 80.19 % of the DMSO control

CC(C)CNC(=O)c1ccc2ccccc2c1 [Compound 89]
LDLR expression (amount of LDLR protein) compared to the DMSO control [1]: increase | ApoE3 Levels in Cell Media, Average of Three Tests [2]: 129.8502 % of the DMSO control | ApoE3 Levels in Cell Media, Test 1 [2]: 110.4906 % of the DMSO control | ApoE3 Levels in Cell Media, Test 2 [2]: 131.1414 % of the DMSO control | ApoE3 Levels in Cell Media, Test 3 [2]: 147.9187 % of the DMSO control

O=S(=O)(c1ccc2ccccc2c1)N1CCCCC1 [Compound 97]
LDLR expression (amount of LDLR protein) compared to the DMSO control [1]: increase | ApoE3 Levels in Cell Media, Average of Three Tests [2]: 86.86 % of the DMSO control | ApoE3 Levels in Cell Media, Test 1 [2]: 90.22 % of the DMSO control | ApoE3 Levels in Cell Media, Test 2 [2]: 90.28 % of the DMSO control | ApoE3 Levels in Cell Media, Test 3 [2]: 80.08 % of the DMSO control

CC(C)CNS(=O)(=O)c1ccc(-c2ccccc2)cc1 [Compound 133]
AbcA1 expression compared to the DMSO control [3]: decrease | ApoE3 Levels in Cell Media, Average of Three Tests [2]: 73.18 % of the DMSO control | ApoE3 Levels in Cell Media, Test 1 [2]: 81.61 % of the DMSO control | ApoE3 Levels in Cell Media, Test 2 [2]: 72.54 % of the DMSO control | ApoE3 Levels in Cell Media, Test 3 [2]: 65.4 % of the DMSO control

O=S(=O)(c1ccc2ccccc2c1)N1CCOCC1 [Compound 95]
LDLR expression (amount of LDLR protein) compared to the DMSO control [1]: increase | ApoE3 Levels in Cell Media, Average of Three Tests [2]: 96.13 % of the DMSO control | ApoE3 Levels in Cell Media, Test 1 [2]: 86.87 % of the DMSO control | ApoE3 Levels in Cell Media, Test 2 [2]: 92.02 % of the DMSO control | ApoE3 Levels in Cell Media, Test 3 [2]: 109.5 % of the DMSO control

— patent US10214502B2, “Method of inhibiting apolipoprotein-E expression while increasing expression of at least one of LDL-receptor protein or AbcA1 protein comprising administering a small compound” (California State University, Fresno, priority 2016, dated 2019)
